Assay results published in ChEMBL document CHEMBL6092226, “Tilting the Scales toward EGFR Mutant Selectivity: Expanding the Scope of Bivalent "Type V" Kinase Inhibitors” (J Med Chem, 2024).

Legend:
BaF3 [1] = assay: cells; settings: Mus musculus, BaF3, 72 h
BaF3 [2] = assay: Antiproliferative activity against mouse BaF3 cells harboring EGFR exon 19del mutant incubated for 72 hrs by MTT assay; format: functional, cell-based; settings: BaF3, 72 h
BaF3 [3] = assay: cells; settings: Mus musculus, BaF3, 72 h; remark: listed apart in the source
BaF3 [4] = assay: cells; settings: Mus musculus, BaF3, 72 h; remark: listed apart in the source
[5] = molecular target: T1, Epidermal growth factor receptor (Homo sapiens, UniProt P00533); assay: Time-dependent irreversible inhibition of N-terminal GST-tagged wildtype human EGFR cytoplasmic domain (669 to 1210 residues) extracted from Sf21 insect cells assessed as apparent inactivation constant (Ki) incubated for 240 mins in presence of ATP by fluorescence based analysis; settings: read-out: Ki(app)
BaF3 [6] = format: functional, cell-based; settings: Mus musculus, BaF3, 72 h
[7] = molecular target: T2, Epidermal growth factor receptor (Homo sapiens, UniProt P00533, L858R/T790M); assay: Time-dependent irreversible inhibition of GST-tagged EGFR L858R/T790M mutant cytoplasmic domain (669 to 1210 residues) (unknown origin) assessed as apparent inactivation constant (Ki) incubated for 240 mins in presence of ATP by fluorescence based analysis; settings: read-out: Ki(app)
[8] = molecular target: T3, Epidermal growth factor receptor (Homo sapiens, UniProt P00533, L858R); assay: Time-dependent irreversible inhibition of GST-tagged EGFR L858R mutant cytoplasmic domain (669 to 1210 residues) (unknown origin) assessed as apparent inactivation constant (Ki) incubated for 240 mins in presence of ATP by fluorescence based analysis; settings: read-out: Ki(app)
[9] = molecular target: T4, Epidermal growth factor receptor (Homo sapiens, UniProt P00533, C797S/L858R/T790M); set-up: species or system Sf9
HCC827 = assay: cells; settings: Homo sapiens, HCC827, 72 h
cells = settings: Homo sapiens, NCI-H1975, 72 h
[10] = molecular target: T2, Epidermal growth factor receptor; assay: Reversible inhibition of EGFR L858R/T790M mutant (696 to 1022 residues) (unknown origin) extracted from baculovirus infected Sf9 insect cells in presence of ATP by HTRF assay
[11] = molecular target: T4, Epidermal growth factor receptor; set-up: species or system Sf9; remark: listed apart in the source
[12] = molecular target: T3, Epidermal growth factor receptor; assay: Reversible inhibition of EGFR L858R mutant (696 to 1022 residues) (unknown origin) extracted from baculovirus infected Sf9 insect cells in presence of ATP by HTRF assay
[13] = molecular target: T1, Epidermal growth factor receptor; assay: Reversible inhibition of wildtype EGFR (696 to 1022 residues) (unknown origin) extracted from baculovirus infected Sf9 insect cells in presence of ATP by HTRF assay
[14] = Metabolic stability in pooled male human liver microsomes at 150 uM measured after 2 hrs in presence of NADPH regenerating system by LC-MS analysis; format: ADME, Microsome
[15] = Drug metabolism in pooled male human liver microsomes assessed as thioether oxidation mediated metabolite formation at 150 uM measured after 2 hrs by LC-MS analysis; format: ADME, Microsome

T4 sequence (P00533 25-1210 T790M/C797S/L858R limits assumed): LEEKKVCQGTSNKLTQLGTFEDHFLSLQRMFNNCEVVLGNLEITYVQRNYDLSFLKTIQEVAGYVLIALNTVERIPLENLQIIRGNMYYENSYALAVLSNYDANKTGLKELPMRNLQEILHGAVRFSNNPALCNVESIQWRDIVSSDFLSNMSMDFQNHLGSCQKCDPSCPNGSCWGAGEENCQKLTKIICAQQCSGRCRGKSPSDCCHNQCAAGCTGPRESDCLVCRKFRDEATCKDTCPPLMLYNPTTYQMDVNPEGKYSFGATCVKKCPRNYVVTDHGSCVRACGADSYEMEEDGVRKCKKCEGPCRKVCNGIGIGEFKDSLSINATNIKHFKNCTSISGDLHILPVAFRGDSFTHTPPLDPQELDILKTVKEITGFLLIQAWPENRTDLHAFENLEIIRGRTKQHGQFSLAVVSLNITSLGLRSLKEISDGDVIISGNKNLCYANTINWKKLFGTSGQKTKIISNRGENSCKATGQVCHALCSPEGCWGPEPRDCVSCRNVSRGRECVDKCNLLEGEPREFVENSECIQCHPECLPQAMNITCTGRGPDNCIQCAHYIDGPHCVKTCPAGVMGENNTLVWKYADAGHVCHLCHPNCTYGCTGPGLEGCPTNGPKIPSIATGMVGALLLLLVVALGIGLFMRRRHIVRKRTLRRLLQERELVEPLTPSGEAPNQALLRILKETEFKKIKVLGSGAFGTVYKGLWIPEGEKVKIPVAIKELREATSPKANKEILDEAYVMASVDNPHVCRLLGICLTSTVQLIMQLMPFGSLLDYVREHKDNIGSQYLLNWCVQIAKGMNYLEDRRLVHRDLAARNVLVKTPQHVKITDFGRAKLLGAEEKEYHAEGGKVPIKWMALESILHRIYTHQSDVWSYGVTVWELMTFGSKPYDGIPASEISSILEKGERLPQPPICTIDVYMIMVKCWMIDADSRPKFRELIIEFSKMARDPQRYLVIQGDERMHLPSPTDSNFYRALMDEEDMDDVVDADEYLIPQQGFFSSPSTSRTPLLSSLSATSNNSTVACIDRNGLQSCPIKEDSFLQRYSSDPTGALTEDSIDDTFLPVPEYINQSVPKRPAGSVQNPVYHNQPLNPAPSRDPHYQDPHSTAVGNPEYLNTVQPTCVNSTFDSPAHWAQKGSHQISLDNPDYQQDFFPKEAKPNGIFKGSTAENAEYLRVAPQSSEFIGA
T1 sequence (P00533 whole entry, the tested form may be a part): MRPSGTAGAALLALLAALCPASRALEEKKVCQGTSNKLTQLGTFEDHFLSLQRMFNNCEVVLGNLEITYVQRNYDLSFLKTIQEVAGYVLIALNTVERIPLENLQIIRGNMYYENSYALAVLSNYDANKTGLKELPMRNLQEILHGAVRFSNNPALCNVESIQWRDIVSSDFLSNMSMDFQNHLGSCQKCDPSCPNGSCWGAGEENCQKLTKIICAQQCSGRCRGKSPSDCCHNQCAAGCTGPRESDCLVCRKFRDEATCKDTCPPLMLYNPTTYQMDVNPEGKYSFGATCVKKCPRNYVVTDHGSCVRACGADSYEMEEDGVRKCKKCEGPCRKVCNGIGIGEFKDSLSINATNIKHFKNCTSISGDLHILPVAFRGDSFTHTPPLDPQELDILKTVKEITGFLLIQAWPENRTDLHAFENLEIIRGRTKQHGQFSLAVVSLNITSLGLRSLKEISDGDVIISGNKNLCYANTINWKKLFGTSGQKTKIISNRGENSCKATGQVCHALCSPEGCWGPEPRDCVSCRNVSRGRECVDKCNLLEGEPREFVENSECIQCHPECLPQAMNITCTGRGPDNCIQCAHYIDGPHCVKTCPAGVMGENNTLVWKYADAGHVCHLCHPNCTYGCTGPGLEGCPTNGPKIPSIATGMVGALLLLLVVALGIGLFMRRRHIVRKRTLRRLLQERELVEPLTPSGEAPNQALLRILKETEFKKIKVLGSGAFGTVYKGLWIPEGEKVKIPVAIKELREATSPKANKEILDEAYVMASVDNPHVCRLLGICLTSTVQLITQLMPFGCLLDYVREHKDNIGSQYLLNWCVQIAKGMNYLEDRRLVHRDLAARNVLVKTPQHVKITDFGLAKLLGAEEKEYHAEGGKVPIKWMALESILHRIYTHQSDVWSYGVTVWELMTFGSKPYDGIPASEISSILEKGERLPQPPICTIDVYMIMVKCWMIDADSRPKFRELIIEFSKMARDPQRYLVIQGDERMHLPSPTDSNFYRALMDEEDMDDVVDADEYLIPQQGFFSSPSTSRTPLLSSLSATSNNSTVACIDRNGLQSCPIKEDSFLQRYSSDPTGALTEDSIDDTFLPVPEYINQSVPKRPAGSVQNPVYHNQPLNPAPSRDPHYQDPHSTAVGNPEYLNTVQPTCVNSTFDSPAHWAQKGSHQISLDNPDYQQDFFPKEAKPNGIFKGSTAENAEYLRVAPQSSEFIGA
T3 sequence (P00533 25-1210 L858R limits assumed): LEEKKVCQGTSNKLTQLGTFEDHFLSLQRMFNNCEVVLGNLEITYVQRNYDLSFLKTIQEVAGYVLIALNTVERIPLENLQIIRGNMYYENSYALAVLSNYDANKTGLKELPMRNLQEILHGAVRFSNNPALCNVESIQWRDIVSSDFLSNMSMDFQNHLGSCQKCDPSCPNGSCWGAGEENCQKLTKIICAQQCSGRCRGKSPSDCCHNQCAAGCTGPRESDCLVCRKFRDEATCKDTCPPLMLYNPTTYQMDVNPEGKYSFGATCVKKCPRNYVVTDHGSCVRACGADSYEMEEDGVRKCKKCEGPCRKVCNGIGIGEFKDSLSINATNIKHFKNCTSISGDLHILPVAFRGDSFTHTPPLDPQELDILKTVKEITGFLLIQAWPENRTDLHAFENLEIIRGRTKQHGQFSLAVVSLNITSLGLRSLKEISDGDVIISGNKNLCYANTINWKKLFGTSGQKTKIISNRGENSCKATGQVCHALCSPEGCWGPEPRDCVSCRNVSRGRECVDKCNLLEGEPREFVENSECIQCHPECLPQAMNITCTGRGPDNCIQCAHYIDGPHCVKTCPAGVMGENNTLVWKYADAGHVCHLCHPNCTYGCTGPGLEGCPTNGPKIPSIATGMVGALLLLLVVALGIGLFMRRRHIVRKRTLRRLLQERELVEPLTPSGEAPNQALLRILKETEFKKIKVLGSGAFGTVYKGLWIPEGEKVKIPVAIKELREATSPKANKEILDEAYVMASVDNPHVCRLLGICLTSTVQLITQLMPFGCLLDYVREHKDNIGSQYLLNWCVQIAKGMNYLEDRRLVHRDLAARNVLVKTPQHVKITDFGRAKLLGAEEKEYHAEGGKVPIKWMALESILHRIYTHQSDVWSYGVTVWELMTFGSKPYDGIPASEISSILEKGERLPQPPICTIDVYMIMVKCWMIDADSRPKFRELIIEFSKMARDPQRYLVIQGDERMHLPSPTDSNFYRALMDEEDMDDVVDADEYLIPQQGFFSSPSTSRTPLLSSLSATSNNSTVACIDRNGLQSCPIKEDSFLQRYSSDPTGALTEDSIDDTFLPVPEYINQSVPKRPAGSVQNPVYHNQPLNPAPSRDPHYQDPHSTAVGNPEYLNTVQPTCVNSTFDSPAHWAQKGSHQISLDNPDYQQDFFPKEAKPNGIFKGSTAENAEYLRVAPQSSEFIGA
T2 sequence (P00533 25-1210 T790M/L858R limits assumed): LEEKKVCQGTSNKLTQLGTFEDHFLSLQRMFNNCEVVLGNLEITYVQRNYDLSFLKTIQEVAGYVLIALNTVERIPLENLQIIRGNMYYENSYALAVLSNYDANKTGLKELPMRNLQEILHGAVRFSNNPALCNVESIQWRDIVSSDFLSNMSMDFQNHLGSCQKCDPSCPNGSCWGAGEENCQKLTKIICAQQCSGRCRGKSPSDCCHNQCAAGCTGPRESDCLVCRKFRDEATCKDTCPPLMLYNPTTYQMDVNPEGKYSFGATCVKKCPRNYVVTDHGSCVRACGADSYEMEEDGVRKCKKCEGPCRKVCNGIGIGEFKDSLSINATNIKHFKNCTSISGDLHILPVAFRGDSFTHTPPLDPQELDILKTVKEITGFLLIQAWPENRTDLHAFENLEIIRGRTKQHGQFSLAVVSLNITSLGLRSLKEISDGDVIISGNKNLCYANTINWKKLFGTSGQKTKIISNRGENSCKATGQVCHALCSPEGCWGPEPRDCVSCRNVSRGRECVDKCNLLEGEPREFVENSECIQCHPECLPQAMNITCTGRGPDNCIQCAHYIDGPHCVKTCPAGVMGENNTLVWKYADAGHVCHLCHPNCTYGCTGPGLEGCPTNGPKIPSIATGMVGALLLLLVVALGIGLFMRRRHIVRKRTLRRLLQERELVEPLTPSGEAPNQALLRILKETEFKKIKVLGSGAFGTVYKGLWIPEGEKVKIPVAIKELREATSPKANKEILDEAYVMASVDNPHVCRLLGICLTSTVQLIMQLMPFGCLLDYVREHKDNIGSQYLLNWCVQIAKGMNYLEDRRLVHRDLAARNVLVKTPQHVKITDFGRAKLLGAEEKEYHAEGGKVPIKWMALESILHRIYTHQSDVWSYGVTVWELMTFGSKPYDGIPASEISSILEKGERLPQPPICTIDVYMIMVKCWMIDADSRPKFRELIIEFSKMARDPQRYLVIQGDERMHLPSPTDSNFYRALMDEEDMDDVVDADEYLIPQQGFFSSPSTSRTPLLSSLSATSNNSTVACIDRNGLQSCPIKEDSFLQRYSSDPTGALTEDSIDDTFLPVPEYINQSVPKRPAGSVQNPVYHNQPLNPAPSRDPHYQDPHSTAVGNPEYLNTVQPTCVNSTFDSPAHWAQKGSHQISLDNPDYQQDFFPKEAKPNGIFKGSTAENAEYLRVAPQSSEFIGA

SMILES	EC50 (BaF3 [1])	EC50 (BaF3 [2])	EC50 (BaF3 [3])	EC50 (BaF3 [4])	EC50 (BaF3 [6])	also measured
CSc1nc(-c2cccc(NC(=O)c3cccc(O)c3CN3Cc4ccccc4C3=O)c2)c(-c2ccnc(Nc3ccccc3)c2)[nH]1	> 10000 nM	4000 nM	> 10000 nM	> 10000 nM	–	–
C=CC(=O)Nc1ccc(OC)c(Nc2cc(-c3[nH]c(SC)nc3-c3cccc(NC(=O)c4ccccc4CN4Cc5ccccc5C4=O)c3)ccn2)c1	170 nM	1400 nM	1700 nM	880 nM	> 10000 nM	Ki [5]: 814 nM; Ki [7]: 310 nM; Ki [8]: 234 nM; IC50 [9]: > 1000 nM
CCOc1nc(-c2cccc(NC(=O)c3cccc(O)c3CN3Cc4ccccc4C3=O)c2)c(-c2ccnc(NC(C)=O)c2)[nH]1	> 10000 nM	> 10000 nM	> 10000 nM	> 10000 nM	–	–
CCOc1nc(-c2cccc(NC(=O)c3cccc(O)c3CN3Cc4ccccc4C3=O)c2)c(-c2ccnc(Nc3ccccc3)c2)[nH]1	2900 nM	> 10000 nM	> 10000 nM	> 10000 nM	–	–
C=CC(=O)Nc1ccc(OC)c(Nc2cc(-c3[nH]c(SC)nc3-c3cccc(NC(=O)c4c(F)cccc4CN4Cc5ccccc5C4=O)c3)ccn2)c1	180 nM	530 nM	720 nM	1100 nM	> 10000 nM	IC50 [9]: 340 nM
CSc1nc(-c2cccc(NC(=O)c3cccc(O)c3CN3Cc4ccccc4C3=O)c2)c(-c2ccnc(Nc3ccc(N4CCNCC4)cc3)c2)[nH]1	> 10000 nM	> 10000 nM	> 10000 nM	> 10000 nM	> 10000 nM	–
CSc1nc(-c2cccc(NC(=O)c3cccc(O)c3CN3Cc4ccccc4C3=O)c2)c(-c2ccnc(NC(C)=O)c2)[nH]1	> 10000 nM	> 10000 nM	> 10000 nM	> 10000 nM	–	–
CCc1nc(-c2cccc(NC(=O)c3cccc(O)c3CN3Cc4ccccc4C3=O)c2)c(-c2ccnc(Nc3ccccc3)c2)[nH]1	3900 nM	–	> 10000 nM	> 10000 nM	> 10000 nM	–
CCc1nc(-c2cccc(NC(=O)c3cccc(O)c3CN3Cc4ccccc4C3=O)c2)c(-c2ccnc(NC(C)=O)c2)[nH]1	> 10000 nM	> 10000 nM	> 10000 nM	> 10000 nM	–	–
CCC(=O)Nc1ccc(OC)c(Nc2cc(-c3[nH]c(SC)nc3-c3cccc(NC(=O)c4cccc(O)c4CN4Cc5ccccc5C4=O)c3)ccn2)c1	1000 nM	1800 nM	1100 nM	> 10000 nM	1700 nM	EC50 (HCC827): 270 nM
CS(=O)(=O)CCNCc1ccc(-c2ccc3ncnc(Nc4ccc(OCc5cccc(F)c5)c(Cl)c4)c3c2)o1 [LAPATINIB]	–	–	–	–	–	EC50 (cells): > 10000 nM; EC50 (HCC827): > 10000 nM
CSc1nc(-c2cccc(NC(=O)c3ccccc3CN3Cc4ccccc4C3=O)c2)c(-c2ccnc(NC(C)=O)c2)[nH]1	–	–	–	–	–	IC50 [10]: 460 nM; IC50 [11]: 450 nM; IC50 [12]: 120 nM; IC50 [13]: > 1000 nM
C=CC(=O)Nc1ccc(OC)c(Nc2cc(-c3[nH]c(SC)nc3-c3cccc(NC(=O)c4c(F)ccc(O)c4CN4Cc5ccccc5C4=O)c3)ccn2)c1	370 nM	1400 nM	1100 nM	1200 nM	> 10000 nM	IC50 [9]: 1.6 nM
C=CC(=O)Nc1ccc(OC)c(Nc2cc(-c3[nH]c(CC)nc3-c3cccc(NC(=O)c4cccc(O)c4CN4Cc5ccccc5C4=O)c3)ccn2)c1	220 nM	1500 nM	1000 nM	590 nM	2100 nM	Stability [14]: Stable; Drug metabolism [15]: metabolite_notdetected; EC50 (cells): 300 nM; IC50 [9]: 0.91 nM; EC50 (HCC827): 290 nM
